Laboratory results reported in ChEMBL document CHEMBL4382286, “Nongenotoxic 3-Nitroimidazo[1,2-a]pyridines Are NTR1 Substrates That Display Potent in Vitro Antileishmanial Activity” (ACS Med Chem Lett, 2019).

Experiments:
[1] = system: Leishmania donovani; assay: Antileishmanial activity against promastigote stage of Leishmania donovani MHOM/IN/00/DEVI after 72 hrs by MTT assay; type: functional, organism-based
[2] = Cytotoxicity against human HepG2 cells after 72 hrs by MTT assay; type: cell-based
[3] = Selectivity index, ratio of CC50 for human HepG2 cells to IC50 for promastigote stage of Leishmania donovani MHOM/IN/00/DEVI; type: toxicity; details: read-out: Ratio CC50/IC50
[4] = Solubility of the compound in RPMI medium at 4 to 6 uM; type: physicochemical
[5] = system: Plasmodium falciparum; assay: Antiplasmodial activity against chloroquine/proguanil/pyrimethamine-resistant synchronized stage of Plasmodium falciparum K1 after 72 hrs by SYBR green1 staining based spectrophotometric method; type: functional, organism-based; details: K1, 72 h
[6] = system: Trichomonas vaginalis; assay: Antiprotozoal activity against Trichomonas vaginalis TVR87 measured after 48 hrs by trypan blue assay; type: functional, organism-based
[7] = system: Trypanosoma cruzi; assay: Antitrypanosomal activity against Trypanosoma cruzi MHOM/BR/78/Silvio cloneX10/7A epimastigotes measured after 4 days by resazurin dye based fluorescence assay; type: functional, organism-based; details: 96 h
[8] = system: Leishmania donovani; assay: Antileishmanial activity against intracellular amastigote stage of Leishmania donovani infected in human THP1 cells after 120 hrs by giemsa staining based microscopic analysis; type: functional, organism-based; details: THP-1, 120 h
[9] = system: Leishmania infantum; assay: Antileishmanial activity against Leishmania infantum axenic amastigotes after 48 hrs by steady-glo luciferase reporter gene assay; type: functional, organism-based
[10] = system: Trypanosoma brucei brucei; assay: Antitrypanosomal activity against trypomastigote stage of Trypanosoma brucei brucei AnTat 1.9 assessed as decrease in parasite viability after 69 hrs by Alamar Blue assay; type: functional, organism-based; details: AnTat 1.9, 69 h
[11] = Aqueous solubility of the compound at >12.5 uM; type: physicochemical; details: buffer
[12] = system: Leishmania donovani; assay: Antileishmanial activity against wild type promastigote stage of Leishmania donovani MHOM/SD/62/1S-CL2D after 72 hrs by resazurin dye based fluorescence assay; type: functional, organism-based
[13] = Substrate activity at NTR1 in promastigote stage of Leishmania donovani MHOM/SD/62/1S-CL2D assessed as inhibition of parasite growth after 72 hrs by resazurin dye based assay
[14] = Substrate activity at NTR2 in promastigote stage of Leishmania donovani MHOM/SD/62/1S-CL2D assessed as inhibition of parasite growth after 72 hrs by resazurin dye based assay
[15] = system: Leishmania donovani; assay: Selectivity ratio of IC50 for wild type promastigote stage of Leishmania donovani MHOM/SD/62/1S-CL2D to IC50 for NTR1 in promastigote stage of Leishmania donovani MHOM/SD/62/1S-CL2D
[16] = system: Leishmania donovani; assay: Selectivity ratio of IC50 for NTR2 in promastigote stage of Leishmania donovani MHOM/SD/62/1S-CL2D to IC50 for NTR1 in promastigote stage of Leishmania donovani MHOM/SD/62/1S-CL2D
[17] = Electrochemical behavior of the compound assessed as redox potential corrected toward normal hydrogen electrode by cyclic voltammetry
[18] = Mutagenicity in Salmonella typhimurium TA97a at 62.5 to 625 uM preincubated for 1 hr followed by addition of molten top agar and measured 48 hrs post dark incubation by Ames test; type: toxicity; details: salmonella enterica subsp. enterica serovar typhimurium
[19] = Mutagenicity in Salmonella typhimurium TA98 at 62.5 to 625 uM preincubated for 1 hr followed by addition of molten top agar and measured 48 hrs post dark incubation by Ames test; type: toxicity; details: salmonella enterica subsp. enterica serovar typhimurium
[20] = Mutagenicity in Salmonella typhimurium TA100 at 62.5 to 625 uM preincubated for 1 hr followed by addition of molten top agar and measured 48 hrs post dark incubation by Ames test; type: toxicity; details: salmonella enterica subsp. enterica serovar typhimurium
[21] = Mutagenicity in Salmonella typhimurium TA102 at 62.5 to 625 uM preincubated for 1 hr followed by addition of molten top agar and measured 48 hrs post dark incubation by Ames test; type: toxicity; details: salmonella enterica subsp. enterica serovar typhimurium
[22] = Mutagenicity in Salmonella typhimurium TA97a at 62.5 to 625 uM preincubated for 1 hr with S9 mix followed by addition of molten top agar and measured 48 hrs post dark incubation by Ames test; type: toxicity, subcellular; details: salmonella enterica subsp. enterica serovar typhimurium, s9, 48 h
[23] = Mutagenicity in Salmonella typhimurium TA98 at 62.5 to 625 uM preincubated for 1 hr with S9 mix followed by addition of molten top agar and measured 48 hrs post dark incubation by Ames test; type: toxicity, subcellular; details: salmonella enterica subsp. enterica serovar typhimurium, s9, 48 h
[24] = Mutagenicity in Salmonella typhimurium TA100 at 62.5 to 625 uM preincubated for 1 hr with S9 mix followed by addition of molten top agar and measured 48 hrs post dark incubation by Ames test; type: toxicity, subcellular; details: salmonella enterica subsp. enterica serovar typhimurium, s9, 48 h
[25] = Mutagenicity in Salmonella typhimurium TA102 at 62.5 to 625 uM preincubated for 1 hr with S9 mix followed by addition of molten top agar and measured 48 hrs post dark incubation by Ames test; type: toxicity, subcellular; details: salmonella enterica subsp. enterica serovar typhimurium, s9, 48 h
[26] = system: Leishmania major; assay: Antileishmanial activity against promastigote stage of Leishmania major MHOM/IL/81/Friedlin after 72 hrs by MTT assay; type: functional, organism-based
[27] = system: Leishmania major; assay: Antileishmanial activity against intracellular amastigote stage of Leishmania major infected in human THP1 cells after 120 hrs by giemsa staining based microscopic analysis; type: functional, organism-based; details: THP-1, 120 h
[28] = Cytotoxicity against human THP1 cells after 72 hrs by MTT assay; type: cell-based; details: THP-1 cells
[29] = Solubility of the compound in RPMI medium at >62.5 uM; type: physicochemical

Compound: Cc1cccc(Sc2cc(Cl)cn3c([N+](=O)[O-])c(CS(=O)(=O)c4ccccc4)nc23)c1
- IC50 [1]: 1400 nM
- CC50 at 72 h [2]: > 5.6 µM
- selectivity ratio [3]: > 4

Compound: O=[N+]([O-])c1c(CS(=O)(=O)c2ccccc2)nc2c(Sc3ccc(F)cc3)cc(Cl)cn12
- IC50 [1]: 1300 nM
- CC50 at 72 h [2]: > 5 µM
- selectivity ratio [3]: > 3.8

Compound: O=C(O)Cc1ccc(Sc2cc(Cl)cn3c([N+](=O)[O-])c(CS(=O)(=O)c4ccccc4)nc23)cc1
- IC50 [1]: 65600 nM
- CC50 at 72 h [2]: > 62.5 µM
- solubility [4]: Soluble
- selectivity ratio [3]: > 1

Compound: O=C1C(O)=C([C@H]2CC[C@H](c3ccc(Cl)cc3)CC2)C(=O)c2ccccc21 [ATOVAQUONE]
- IC50 [5]: 1 nM

Compound: O=[N+]([O-])c1c(CS(=O)(=O)c2ccccc2)nc2c(Sc3ccc(C(F)(F)F)cc3)cc(Cl)cn12
- IC50 [1]: 2100 nM
- CC50 at 72 h [2]: > 3.9 µM
- selectivity ratio [3]: > 1.5

Compound: Cc1ncc([N+](=O)[O-])n1CCO [METRONIDAZOLE]
- IC50 [6]: 4.2 µM

Compound: O=[N+]([O-])c1c(CS(=O)(=O)c2ccccc2)nc2c(Sc3ccccc3F)cc(Cl)cn12
- IC50 [1]: 1200 nM
- CC50 at 72 h [2]: > 5 µM
- selectivity ratio [3]: > 4.2

Compound: CC1CS(=O)(=O)CCN1/N=C/c1ccc([N+](=O)[O-])o1 (configuration not stated) [NIFURTIMOX]
- IC50 [7]: 0.3 µM

Compound: COc1ccccc1Sc1cc(Cl)cn2c([N+](=O)[O-])c(CS(=O)(=O)c3ccccc3)nc12
- IC50 [1]: 2300 nM
- CC50 at 72 h [2]: > 50 µM
- selectivity ratio [3]: > 21.7

Compound: O=[N+]([O-])c1c(CS(=O)(=O)c2ccccc2)nc2c(SCc3ccccc3)cc(Cl)cn12
- solubility [4]: Insoluble

Compound: O=[N+]([O-])c1c(CS(=O)(=O)c2ccccc2)nc2c(S(=O)(=O)c3ccc(Cl)cc3)cc(Cl)cn12
- CC50 at 72 h [2]: > 12.5 µM
- IC50 [8]: 1300 nM
- IC50 [9]: 3.7 µM
- IC50 [10]: 1000 nM
- solubility [11]: Insoluble
- IC50 [12]: 600 nM
- IC50 [13]: 80 nM
- IC50 [14]: 700 nM
- Ratio IC50 [15]: 8
- Ratio IC50 [16]: 8
- Activity [17]: -0.59 V

Compound: O=[N+]([O-])c1c(CS(=O)(=O)c2ccccc2)nc2c([S+]([O-])c3ccc(Cl)cc3)cc(Cl)cn12 (configuration not stated)
- CC50 at 72 h [2]: > 12.5 µM
- IC50 [8]: 1300 nM
- IC50 [9]: 1.6 µM
- IC50 [10]: 600 nM
- solubility [11]: Insoluble
- Activity [18]: Non-Toxic
- Activity [19]: Non-Toxic
- Activity [20]: Non-Toxic
- Activity [21]: Non-Toxic
- Activity [22]: Non-Toxic
- Activity [23]: Non-Toxic
- Activity [24]: Non-Toxic
- Activity [25]: Non-Toxic
- Activity [17]: -0.61 V

Compound: Cc1ccccc1Sc1cc(Cl)cn2c([N+](=O)[O-])c(CS(=O)(=O)c3ccccc3)nc12
- IC50 [1]: 1700 nM
- CC50 at 72 h [2]: > 3.9 µM
- selectivity ratio [3]: > 1.5

Compound: O=[N+]([O-])c1c(CS(=O)(=O)c2ccccc2)nc2c(Sc3cc(Cl)ccc3Cl)cc(Cl)cn12
- IC50 [1]: 1300 nM
- CC50 at 72 h [2]: > 3.9 µM
- selectivity ratio [3]: > 1.5

Compound: O=[N+]([O-])c1c(CS(=O)(=O)c2ccccc2)nc2c(Sc3cccc(C(F)(F)F)c3)cc(Cl)cn12
- IC50 [1]: 1300 nM
- CC50 at 72 h [2]: > 3.9 µM
- selectivity ratio [3]: > 2.4

Compound: O=[N+]([O-])c1c(CS(=O)(=O)c2ccccc2)nc2c(Sc3ccc(Br)cc3)cc(Cl)cn12
- IC50 [1]: 1000 nM
- CC50 at 72 h [2]: > 62.5 µM
- solubility [4]: Soluble
- selectivity ratio [3]: > 62.5
- IC50 [8]: 3500 nM
- IC50 [9]: 9 µM
- IC50 [26]: 1300 nM
- IC50 [27]: 5 µM
- IC50 [6]: 4.6 to 5 µM
- IC50 [10]: 3800 nM
- IC50 [7]: 6.2 µM
- CC50 at 72 h [28]: > 62.5 µM
- solubility [29]: Insoluble

Compound: O=[N+]([O-])c1c(CS(=O)(=O)c2ccccc2)nc2c(Sc3ccccc3C(F)(F)F)cc(Cl)cn12
- IC50 [1]: 1500 nM
- CC50 at 72 h [2]: > 4.1 µM
- selectivity ratio [3]: > 2.7

Compound: CSc1ccc(OCc2ncc([N+](=O)[O-])n2C)cc1 [FEXINIDAZOLE]
- CC50 at 72 h [2]: > 200 µM
- IC50 [8]: > 50000 nM
- IC50 [7]: 8.9 µM
- CC50 at 72 h [28]: > 62.5 µM
